Earlier results as cited in publication PMC3065533 (Journal of nuclear medicine : official publication, Society …, 2011).

Target: melanocortin-1 (MC1) receptor (Mus musculus, UniProt Q01727)
Conditions: stated in methods without reference

Sequence of melanocortin-1 (MC1) receptor (Q01727 whole entry): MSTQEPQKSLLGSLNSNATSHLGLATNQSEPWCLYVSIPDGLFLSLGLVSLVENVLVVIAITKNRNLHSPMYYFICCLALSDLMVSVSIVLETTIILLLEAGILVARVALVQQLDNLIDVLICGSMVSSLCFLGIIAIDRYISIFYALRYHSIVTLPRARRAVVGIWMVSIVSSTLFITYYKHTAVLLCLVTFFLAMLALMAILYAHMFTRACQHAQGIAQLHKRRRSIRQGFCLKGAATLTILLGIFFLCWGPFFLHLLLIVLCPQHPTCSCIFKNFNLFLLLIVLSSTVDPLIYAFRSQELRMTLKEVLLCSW

MC1 receptor binding affinity (in words): picomolar
Substance: NDP-MSH
